Measurements reported in publication PMC8041284, “Tunable Methacrylamides for Covalent Ligand Directed Release Chemistry” (Journal of the American Chemical Society, 2021).
Read-outs that look alike come from different tables or passages of the source. Each block holds one compound with its values, some of them ahead of it.

Molecular target: BTK (Homo sapiens, UniProt Q06187)
Test: biochemical
[1] = read-out: BTK inhibition (%), 0.75 uM BTK, […] probe 3l, 15 min preincubation

BTK, sequence (Q06187 402-655 limits assumed): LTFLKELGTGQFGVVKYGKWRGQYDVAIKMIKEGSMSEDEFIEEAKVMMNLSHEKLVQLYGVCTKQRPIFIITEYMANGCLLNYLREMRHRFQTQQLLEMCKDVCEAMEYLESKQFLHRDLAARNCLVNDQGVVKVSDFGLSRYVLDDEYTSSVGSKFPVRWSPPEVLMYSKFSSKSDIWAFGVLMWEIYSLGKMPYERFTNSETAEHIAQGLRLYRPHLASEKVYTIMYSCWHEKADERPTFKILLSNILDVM

SMILES: C=CC(=C)C [PCM-0216155]
inhibition at 10 µM [1]: 1.5%

SMILES: O=C(Nc1ncc(SCCN2CCCC2)s1)[C@]1(c2ccc(S(=O)(=O)C3CC3)cc2)C[C@H]1C1CCCCC1 [PCM-0095206]
inhibition at 10 µM [1]: -8.6%

SMILES: CC(C)=C1C/C=C(\C)CC/C=C(\C)CC1=O [PCM-0216542]
inhibition at 10 µM [1]: -4.6%

SMILES: O=C(O)/C=C/c1cccc(O)c1 [PCM-0216210]
inhibition at 10 µM [1]: -3.1%

SMILES: Cc1cc(C)cc(C(=O)NOCCCCCC(=O)NO)c1 [PCM-0215409]
inhibition at 10 µM [1]: 9.3%

SMILES: CCOC(=O)c1ccc(N2NC(=O)/C(=C/c3ccc([N+](=O)[O-])o3)C2=O)cc1 [PCM-0095807]
inhibition at 10 µM [1]: 64.9%

SMILES: C/C=C(/C)C(=O)OC(=O)/C(C)=C\C [PCM-0215943]
inhibition at 10 µM [1]: -8.6%

SMILES: C[C@@H]1O[C@@H](OC[C@H]2O[C@@H](Oc3c(-c4ccc(OCCO)c(OCCO)c4)oc4cc(OCCO)cc(O)c4c3=O)[C@H](O)[C@@H](O)[C@@H]2O)[C@H](O)[C@H](O)[C@H]1O [PCM-0214656]
inhibition at 10 µM [1]: -19.5%

SMILES: C[C@H](CCC(=O)NCC(=O)O)[C@H]1CC[C@H]2[C@@H]3[C@H](O)C[C@@H]4C[C@H](O)CC[C@]4(C)[C@H]3C[C@H](O)[C@]12C [PCM-0215147]
inhibition at 10 µM [1]: -10.1%

SMILES: O=C1CN2Cc3c(ccc(Cl)c3Cl)N=C2N1 [PCM-0090482]
inhibition at 10 µM [1]: -15.2%

SMILES: C[N+](C)(C)NCCC(=O)[O-] [PCM-0215179]
inhibition at 10 µM [1]: -8.5%

SMILES: C[C@]12CC[C@@H]3c4ccc(O)cc4CC[C@H]3[C@@H]1CC[C@@H]2O [PCM-0214649]
inhibition at 10 µM [1]: 4.1%

SMILES: C/C1=C\CC[C@H](C)C(=O)C[C@@H](C(C)C)C(=O)C1 [PCM-0216439]
inhibition at 10 µM [1]: -3.9%

SMILES: CC(C)[C@H](C)[C@@H](O)[C@H](O)[C@@H](C)[C@H]1CC[C@H]2[C@@H]3COC(=O)[C@H]4C[C@H](O)[C@H](O)C[C@]4(C)[C@H]3CC[C@]12C [PCM-0215160]
inhibition at 10 µM [1]: -10.1%

SMILES: CC1=C[C@H]2Cc3[nH]c(=O)ccc3[C@]3(C1)NCCC[C@H]23 [PCM-0216475]
inhibition at 10 µM [1]: -10%

SMILES: CC(C)=CCC/C(C)=C/C=O [PCM-0215914]
inhibition at 10 µM [1]: -17%

SMILES: O=C(/C=C/c1cccc(S(=O)(=O)Nc2ccccc2)c1)NO [PCM-0095051]
inhibition at 10 µM [1]: 9%

SMILES: C[C@@H]1CC[C@H]2[C@@H](C)C(O)O[C@@H]3O[C@@]4(C)CC[C@@H]1[C@]32OO4 (stereo partly drawn) [PCM-0214674]
inhibition at 10 µM [1]: -20.2%

SMILES: NC1CCC(N[C@@H]2C[C@H]2c2ccccc2)CC1 (stereo partly drawn) [PCM-0215562]
inhibition at 10 µM [1]: 13.1%

SMILES: c1ccc(-c2ccc(C(c3ccccc3)n3ccnc3)cc2)cc1 (stereo not drawn) [PCM-0086296]
inhibition at 10 µM [1]: 33.5%

SMILES: NCCCCCNCC12CC3CC(CC(C3)C1)C2 [PCM-0095503]
inhibition at 10 µM [1]: -19.5%

SMILES: C=C(C)[C@@H]1CC[C@]2(C=O)CC[C@]3(C)[C@H](CC[C@@H]4[C@@]5(C)CC[C@H](O)C(C)(C)[C@@H]5CC[C@]43C)[C@@H]12 [PCM-0216430]
inhibition at 10 µM [1]: 19.3%

SMILES: N#CC1(c2ccc(NC(=O)c3cccnc3NCc3ccncc3)cc2)CCCC1 [PCM-0095263]
inhibition at 10 µM [1]: 2.8%

SMILES: CC(C)C(C(=O)O)N1C(=O)/C(=C\c2ccc(Br)cc2)SC1=S (stereo not drawn) [PCM-0215783]
inhibition at 10 µM [1]: -3.1%

SMILES: NC(=O)[C@@H]1CCCN1C(=O)[C@H](Cc1cnc[nH]1)NC(=O)[C@@H]1CCC(=O)N1 [PCM-0214836]
inhibition at 10 µM [1]: -5.4%

SMILES: CCCC(=O)Nc1cccc(NC(=O)c2ccccc2Br)c1 [PCM-0095401]
inhibition at 10 µM [1]: 19.5%

SMILES: OC[C@H]1O[C@@H](O[C@@H]2OC=C[C@H]3[C@H](O)[C@@H]4O[C@]4(CO)[C@@H]23)[C@H](O)[C@@H](O)[C@@H]1O [PCM-0215028]
inhibition at 10 µM [1]: 26.2%

SMILES: O=C(O)c1cc2cccc([N+](=O)[O-])c2[nH]1 [PCM-0095778]
inhibition at 10 µM [1]: 0.8%

SMILES: CC1(C)CC(O)CC(C)(C)N1[O] [PCM-0095391]
inhibition at 10 µM (read-out: BTK inhibition (%)): 10.3%

SMILES: O=C(O)c1cc(O)ccc1O [PCM-0215019]
inhibition at 10 µM [1]: -21.4%

SMILES: NC(=O)c1noc([C@H](CCCC2CCCCC2)CC(=O)NO)n1 [PCM-0095693]
inhibition at 10 µM [1]: 10.1%

SMILES: CC(=O)O [PCM-0215080]
inhibition at 10 µM [1]: -2.3%

SMILES: C#C[C@]1(OC(C)=O)CC[C@H]2[C@@H]3CCC4=C[C@@H](OC(C)=O)CC[C@@H]4[C@H]3CC[C@@]21C [PCM-0214663]
inhibition at 10 µM [1]: 2.3%

Next, values leading:

inhibition at 10 µM [1]: 21.4%
SMILES: COc1cc2ncnc(Nc3cccc(Cl)c3)c2cc1OC [PCM-0012125]

inhibition at 10 µM [1]: 0.8%
SMILES: CCCc1nc(C(C)(C)O)c(C(=O)OCc2oc(=O)oc2C)n1Cc1ccc(-c2ccccc2-c2nn[nH]n2)cc1 [PCM-0086318]

inhibition at 10 µM [1]: 15.2%
SMILES: O=C(CCc1ccc(O)cc1)c1c(O)cc(O)cc1O [PCM-0065552]

inhibition at 10 µM [1]: -12.4%
SMILES: O=C(O)CCCc1ccccc1 [PCM-0095550]

inhibition at 10 µM [1]: -8.5%
SMILES: Cc1cc(C)c(CN2CCc3c(Cl)cc(-c4c(C)noc4C)c(Cl)c3C2=O)c(=O)[nH]1 [PCM-0215872]

inhibition at 10 µM [1]: -10.9%
SMILES: CCCCc1nc(Cl)c(CO)n1Cc1ccc(-c2ccccc2-c2nnn[nH]2)cc1 [PCM-0086291]

inhibition at 10 µM [1]: -7%
SMILES: COc1cccc(-c2c(C)n(Cc3c(F)cccc3C(F)(F)F)c(=O)n(C[C@H](NCCCC(=O)O)c3ccccc3)c2=O)c1F [PCM-0215104]

inhibition at 10 µM [1]: 6.2%
SMILES: C[C@H](NC(=O)[C@@H](O)c1cc(F)cc(F)c1)C(=O)N[C@@H]1C(=O)N(C)c2ccccc2-c2ccccc21 [PCM-0095417]

inhibition at 10 µM [1]: 0%
SMILES: Cc1nc(-c2cn3c(n2)-c2ccc(-c4cnn(C(C)(C)C(N)=O)c4)cc2OCC3)n(C(C)C)n1 [PCM-0215518]

inhibition at 10 µM [1]: 15.6%
SMILES: COc1cc(NC(=O)c2ccccn2)ccc1Cl [PCM-0095344]

inhibition at 10 µM [1]: 7.7%
SMILES: O=C(O)COc1ccc(Br)cc1/C=C1\SC(=S)N(Cc2cccnc2)C1=O [PCM-0216029]

inhibition at 10 µM [1]: 4.6%
SMILES: COc1ccc(C[C@@H]2c3cc(Oc4cc(C[C@@H]5c6cc(OC)c(OC)cc6CCN5C)ccc4O)c(OC)cc3CCN2C)cc1 [PCM-0215948]

inhibition at 10 µM [1]: 18.6%
SMILES: O=C1c2ccccc2-c2n[nH]c3cccc1c23 [PCM-0012406]

inhibition at 10 µM [1]: -41.7%
SMILES: CCCCCCC[C@H](O)CC(=O)CCc1ccc(O)c(OC)c1 [PCM-0216329]

inhibition at 10 µM [1]: -75.9%
SMILES: COc1cccc(-c2ccc(NC(=O)C3=C(C(=O)O)CCC3)c(F)c2)c1 [PCM-0215523]

inhibition at 10 µM [1]: -24.1%
SMILES: O=C(NCCO)c1cccc(-c2cc(Nc3ccc(OC(F)(F)F)cc3)ncn2)c1 [PCM-0213352]

inhibition at 10 µM [1]: -11.6%
SMILES: CCC(=C(c1ccc(O)cc1)c1ccc(OCCN(C)C)cc1)c1ccccc1 [PCM-0215638]

inhibition at 10 µM [1]: 91%
SMILES: C=CC(=O)Nc1cccc(Nc2nc(Nc3ccc(NC4CN(CCF)C4)cc3OC)ncc2C(F)(F)F)c1 [PCM-0215208]

inhibition at 10 µM [1]: 10.1%
SMILES: C[C@@H](O[C@H]1OCCN(Cc2nn(P(=O)(O)O)c(=O)[nH]2)[C@H]1c1ccc(F)cc1)c1cc(C(F)(F)F)cc(C(F)(F)F)c1 [PCM-0214804]

inhibition at 10 µM [1]: -2.1%
SMILES: COc1cc(OC)c(/C=C/S(=O)(=O)Cc2ccc(OC)c(NCC(=O)O)c2)c(OC)c1 [PCM-0094976]

inhibition at 10 µM [1]: 4.8%
SMILES: Cc1ccc(C(=O)Nc2cccc(C(F)(F)F)c2)cc1Nc1nc(-c2cccnc2)nc2c1cnn2C [PCM-0095241]

inhibition at 10 µM [1]: 2.1%
SMILES: CC[C@@](C)(Nc1ccnc(-c2c[nH]c3ncccc23)n1)C(=O)NCC(F)(F)F [PCM-0215573]

inhibition at 10 µM [1]: 3.1%
SMILES: O=[N+]([O-])c1cn2c(n1)OC[C@@H](OCc1ccc(OC(F)(F)F)cc1)C2 [PCM-0094995]

inhibition at 10 µM [1]: 24.1%
SMILES: Cc1ncc(CCCN(C)C)cc1Nc1ncc2c(n1)-c1ccc(C(F)(F)F)cc1NC(=S)C2 [PCM-0214732]
